Test system: patients being treated with dihydropyridine type calcium antagonists who still complained of painful angina pectoris attacks
Experiment: Clinical studies 019 and 021: angina attacks in patients on dihydropyridines given concomitant ivabradine
Type: in vivo
Conditions: for Change in the number of angina pectoris attacks, %: after 1 year of ivabradine versus inclusion; for Number of angina pectoris attacks (per week), after treatment: patients on dihydropyridines on inclusion, ivabradine for 1 year
Excerpt: Two clinical studies carried out in patients being treated with dihydropyridine type calcium antagonists who still complained of painful angina pectoris attacks (despite the calcium antagonist) have shown that concomitant treatment with ivabradine makes it possible to reduce these attacks very substantially (by about 60%).

COc1cc2c(cc1OC)CC(=O)N(CCCN(C)C[C@H]1Cc3cc(OC)c(OC)cc31)CC2 [ivabradine, 3-{3-[{[(7S)-3,4-dimethoxy-bicyclo[4.2.0]octa-1,3,5-trien-7-yl]methyl}(methyl)amino]propyl}-7,8-dimethoxy-1,3,4,5-tetrahydro-2H-3-benzazepin-2-one]
Change in the number of angina pectoris attacks, % (Study 019, n = 27): −61.4% | Number of angina pectoris attacks (per week), after treatment (Study 019, n = 27): 0.7 ± 1.3 per week | Change in the number of angina pectoris attacks, % (Study 021, n = 114): −58.9% | Number of angina pectoris attacks (per week), after treatment (Study 021, n = 114): 0.9 ± 2.9 per week | Reduction of painful angina pectoris attacks (two clinical studies, ivabradine concomitant with dihydropyridine calcium antagonist): about 60%

Reference: patent publication US20070142356A1, “Association of a sinus node If curent inhibitor and a calcium inhibitor, and pharmaceutical compositions containing it” (LES LABORATOIRES SERVIER, priority 2005, published 2007)
